Source: US8901118B2, “Compounds and methods for kinase modulation, and indications therefor” (Plexxikon Inc., priority 2010, dated 2014)

Assays:
CYP3A4(BFC) = CYP3A4(BFC) (Homo sapiens, UniProt P08684); test: CYP3A4(BFC) inhibition; assay type: in vitro ADME; details: CYP3A4, substrate BFC; read-out: Cyp IC50 3A4(BFC)
Summary of the method: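 Inhibition of human CYP3A4 with the BFC substrate was measured by fluorescence loss of the metabolized product. Compounds at 100 mM in DMSO were diluted 1 μL into 82 μL acetonitrile, then 11 μL into 204 μL cofactor mix with NADPH regeneration solutions, and serially diluted 1:1 to 10 points. Plates were incubated 30 min at 37° C and read at 409 ex/460 em to obtain IC50.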

CYP1A2 = target: T1, CYP1A2 (Homo sapiens, UniProt P05177); test: CYP1A2 inhibition (fluorescent substrate CEC); assay type: in vitro ADME; details: read-out: Cyp IC50 1A2
T1 sequence (P05177 1-516): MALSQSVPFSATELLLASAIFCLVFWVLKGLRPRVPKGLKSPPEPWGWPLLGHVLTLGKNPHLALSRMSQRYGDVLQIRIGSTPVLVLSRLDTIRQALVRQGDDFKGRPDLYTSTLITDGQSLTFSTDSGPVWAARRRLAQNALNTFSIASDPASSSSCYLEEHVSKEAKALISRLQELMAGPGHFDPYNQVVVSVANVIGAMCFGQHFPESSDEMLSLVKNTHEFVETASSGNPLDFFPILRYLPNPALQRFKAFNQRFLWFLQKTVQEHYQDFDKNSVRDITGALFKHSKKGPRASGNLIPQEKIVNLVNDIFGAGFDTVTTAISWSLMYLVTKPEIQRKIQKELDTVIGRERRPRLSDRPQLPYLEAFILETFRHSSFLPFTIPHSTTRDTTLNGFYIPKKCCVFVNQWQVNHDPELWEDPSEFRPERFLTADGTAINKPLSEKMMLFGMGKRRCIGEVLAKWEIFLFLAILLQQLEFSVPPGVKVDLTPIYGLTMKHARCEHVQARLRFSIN
Summary of the method: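 Inhibition is measured as the drop in fluorescent metabolite formation across a 10-point compound titration with NADPH regeneration at 37 °C. Incubation lasts 15 min for CYP1A2, 45 min for CYP2C9 and 30 min for CYP2C19 and CYP2D6.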

[1] = test system: Osteoclast precursor cells; test: Osteoclast differentiation assay (acid phosphatase readout); assay type: cell-based
Description: Further, an osteoclast differentiation assay is used to assess the efficacy of Fms inhibitors for treating bone disease such as osteoarthritis. On day 0, Osteoclast Medium BulletKit (Lonza catalog #PT-8001, containing Media, FBS, L-Glutamine, PenStrep, RANKL, and M-CSF) media is thawed and the FBS, L-glutamine and PenStrep from the kit is added to 100 mL of Osteoclast Precursor Basal medium to provide the Osteoclast Precursor Growth Medium (OPGM). This is warmed to 37° C. Osteoclast precursor cells (Lonza catalog #2T-110) frozen in cryovial are warmed to 37° C. and transferred to a 50 mL conical tube. The cryovial is rinsed with OPGM and added dropwise to the conical tube of cells with swirling, then the volume is adjusted to 20-30 mL with addition of OPGM. The cells are centrifuged at 200×g for 15 minutes at room temperature and all but approximately 3 mL of supernatant is removed to a new conical tube. The cells are suspended in the remaining supernatant and the volume is adjusted to 10-15 mL with OPGM added dropwise with swirling. The cells are centrifuged at 200×g for 15 minutes at room temperature and all but approximately 1 mL of supernatant is removed. The cells are resuspended in the remaining supernatant, counted, and the volume adjusted with an appropriate amount of OPGM to provide approximately 1×10^5 cells/mL. A 0.1 mL aliquot of cells is added to each well of a 96-well plate. Compound to be tested is prepared in DMSO for plating at a high concentration of 2.5 mM, with 8 point 1:3 serial dilutions. A 1 μL aliquot of each compound dilution is added to a 96 well v-bottom polypropylene plate and 0.124 mL of OPGM is added to the compound. Then 50 μL at of the compound in OPGM is added to the osteoclast precursor cells in 96-well plate (providing highest test concentration of 5 μM). RANKL (2 μg) from the BulletKit is reconstituted in 1 mL of OPGM, then vortexed and centrifuged briefly. A 792 μL at aliquot of RANKL is added to 6 mL of OPGM and 50 μL at is added to low control wells. Then 76.6 μL M-CSF (10 μg/mL) from the BulletKit is added to the remaining 5.8 mL of OPGM/RANKL solution (4×RANKL/M-CSF/OPGM). A 50 μL at aliquot of this is added to the remaining wells, and the remainder is stored at 4° C. for later use. The plate is incubated at 37° C. for 6 days, then the remaining OPGM/RANKL/M-CSF solution is warmed to 37° C. The remaining approximately 198 μL is combined with 6 mL of OPGM. The media is aspirated from the osteoclast wells and 100 μL of RANKL/OPGM is added to the low controls. The remaining RANKL/OPGM is combined with the approximately 18.5 μL of remaining M-CSF. The remaining 4×RANKL/M-CSF/OPGM from day 0 is diluted to 1× and combined with the freshly prepared solution. A 0.1 mL aliquot of this is added to each osteoclast well and incubated for 37° C. for 1 day. The Acid Phosphatase kit (Cayman Chemical catalog #10008051) is warmed to room temperature. The assay buffer is diluted 5 mL with 45 mL of water. For each plate, two substrate tablets are dissolved in 4.5 mL of the assay buffer, mixing by vortex to break up the tablet. Stop solution is diluted 12 mL with 36 mL of water. In a tissue culture hood, 20 μL of each osteoclast well supernatant is transferred to a 96 well plate. A 30 μL aliquot of the substrate solution is added to each well and incubated at 37° C. for 20 minutes, then added 100 μL stop solution to each well. The absorbance of each well is read at 405 nm on Safire plate reader. The absorbance reading is plotted vs. concentration to provide the IC50 for each compound.

CYP3A4(BFC), sequence (P08684 whole entry): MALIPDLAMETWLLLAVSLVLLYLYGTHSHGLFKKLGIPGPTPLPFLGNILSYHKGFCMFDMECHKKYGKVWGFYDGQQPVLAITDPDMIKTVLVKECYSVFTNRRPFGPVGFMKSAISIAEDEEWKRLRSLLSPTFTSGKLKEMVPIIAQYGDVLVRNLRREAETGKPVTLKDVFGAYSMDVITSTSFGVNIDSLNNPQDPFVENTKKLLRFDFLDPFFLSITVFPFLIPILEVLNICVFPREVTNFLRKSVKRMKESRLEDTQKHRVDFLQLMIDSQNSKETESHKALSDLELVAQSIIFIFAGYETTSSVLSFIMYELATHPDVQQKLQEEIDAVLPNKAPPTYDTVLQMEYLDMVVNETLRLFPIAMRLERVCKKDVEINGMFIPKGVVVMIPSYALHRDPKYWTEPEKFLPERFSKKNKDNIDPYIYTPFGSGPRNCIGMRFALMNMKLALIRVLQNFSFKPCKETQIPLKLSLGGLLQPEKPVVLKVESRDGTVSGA

| Structure (SMILES) | IC50 (CYP3A4(BFC)) [µM] | IC50 (CYP1A2) [µM] | IC50 [1] [µM] |
| --- | --- | --- | --- |
| CC(C)=CNc1ncnc2[nH]cc(C(=O)c3ccc(NC4CCC(F)(F)CC4)nc3Cl)c12 [Compound P-4047, [2-chloro-6-[(4,4-difluorocyclohexyl)amino]-3-pyridyl]-[4-(2-methylprop-1-enylamino)-7H-pyrrolo[2,3-d]pyrimidin-5-yl]methanone] | > 10 | > 10 | – |
| Fc1nc(Nc2ccc(C3CC3)nc2)ccc1Cc1c[nH]c2ncnc(C3CC3)c12 [Compound P-4041, (6-Cyclopropyl-pyridin-3-yl)-[5-(4-cyclopropyl-7H-pyrrolo[2,3-d]pyrimidin-5-ylmethyl)-6-fluoro-pyridin-2-yl]-amine] | > 10 | 5 to 10 | – |
| Nc1ncnc2[nH]cc(C(=O)c3ccc(Nc4ccc(C5CC5)nc4)nc3F)c12 [Compound P-4048, (4-amino-7H-pyrrolo[2,3-d]pyrimidin-5-yl)-[6-[(6-cyclopropyl-3-pyridyl)amino]-2-fluoro-3-pyridyl]methanone] | > 10 | > 10 | – |
| CC(C)(O)CNc1ncnc2[nH]cc(C(=O)c3ccc(Nc4ccc(C5CC5)nc4)nc3F)c12 [Compound P-4049, [6-[(6-cyclopropyl-3-pyridyl)amino]-2-fluoro-3-pyridyl]-[4-[(2-hydroxy-2-methyl-propyl)amino]-7H-pyrrolo[2,3-d]pyrimidin-5-yl]methanone] | > 10 | > 10 | – |
| Cc1cnc2[nH]cc(Cc3ccc(NC4CCCCC4)nc3F)c2c1 [Compound P-3008, cyclohexyl-[6-fluoro-5-(5-methyl-1H-pyrrolo[2,3-b]pyridin-3-ylmethyl)-pyridin-2-yl]-amine] | 5 to 10 | > 10 | < 0.1 |

The remaining lines, values ahead:

| IC50 (CYP3A4(BFC)) [µM] | IC50 (CYP1A2) [µM] | IC50 [1] [µM] | Structure (SMILES) |
| --- | --- | --- | --- |
| > 10 | > 10 | – | CNc1ncnc2[nH]cc(C(=O)c3cnc(NC4CCC(F)(F)CC4)c(F)c3)c12 [Compound P-4054, [6-[(4,4-difluorocyclohexyl)amino]-5-fluoro-3-pyridyl]-[4-(methylamino)-7H-pyrrolo[2,3-d]pyrimidin-5-yl]methanone] |
| > 10 | > 10 | – | O=C(c1cnc(NC2CCC(F)(F)CC2)c(F)c1)c1c[nH]c2ncnc(NCC(F)(F)F)c12 [Compound P-4052, [6-[(4,4-difluorocyclohexyl)amino]-5-fluoro-3-pyridyl]-[4-(2,2,2-trifluoroethylamino)-7H-pyrrolo[2,3-d]pyrimidin-5-yl]methanone] |
| > 10 | > 10 | – | O=C(c1cnc(NC2CCC(F)(F)CC2)c(F)c1)c1c[nH]c2ncnc(NC3CC3)c12 [Compound P-4053, [4-(cyclopropylamino)-7H-pyrrolo[2,3-d]pyrimidin-5-yl]-[6-[(4,4-difluorocyclohexyl)amino]-5-fluoro-3-pyridyl]methanone] |
| > 10 | > 10 | – | CCNc1ncnc2[nH]cc(C(=O)c3ccc(NC4CCC(F)(F)CC4)nc3Cl)c12 [Compound P-4050, [2-chloro-6-[(4,4-difluorocyclohexyl)amino]-3-pyridyl]-[4-(ethylamino)-7H-pyrrolo[2,3-d]pyrimidin-5-yl]methanone] |
| > 10 | > 10 | – | CCNc1ncnc2[nH]cc(C(=O)c3cnc(NC4CCC(F)(F)CC4)c(F)c3)c12 [Compound P-4051, [6-[(4,4-difluorocyclohexyl)amino]-5-fluoro-3-pyridyl]-[4-(ethylamino)-7H-pyrrolo[2,3-d]pyrimidin-5-yl]methanone] |
